Test results: patent US9795139B2, “Molecules having pesticidal utility, and intermediates, compositions, and processes, related thereto” (priority 2015, dated 2017)

Columns and labels:
Format in all cases: in vivo
[1] = system: Beet Armyworm (Spodoptera exigua, LAPHEG); assay: Bioassay on Beet Armyworm (BAW), 128-well diet tray assay; conditions: 168 h, 50 μg/cm^2 on artificial diet, second instar larvae, 25° C., five to seven days, average of eight wells, read-out: BAW % Control (or Mortality) rating
Protocol: (§1) Certain molecules disclosed in this document were tested against BAW and CL using procedures described in the following examples. In the reporting of the results, the “BAW & CL Rating Table” was used (See Table Section).
Bioassays on BAW were conducted using a 128-well diet tray assay. One to five second instar BAW larvae were placed in each well (3 mL) of the diet tray that had been previously filled with approximately 1.5 mL of artificial diet to which 50 μg/cm^2 of the test molecule (dissolved in 50 μL of 90:10 acetone-water mixture) had been applied (to each of eight wells) and then allowed to dry. Trays were covered with a clear self-adhesive cover, vented to allow gas exchange, and held at 25° C., 14:10 light-dark for five to seven days. Percent mortality was recorded for the larvae in each well; activity in the eight wells was then averaged. The results are indicated in the table entitled “Table ABC: Biological Results” (See Table Section).

[2] = system: Cabbage Looper (Trichoplusia ni, TRIPNI); assay: Bioassay on Cabbage Looper (CL), 128-well diet tray assay; conditions: 168 h, 50 μg/cm^2 on artificial diet, second instar larvae, 25° C., five to seven days, average of eight wells, read-out: CL % Control (or Mortality) rating
Protocol: as §1
Bioassays on CL were conducted using a 128-well diet tray assay. one to five second instar CL larvae were placed in each well (3 mL) of the diet tray that had been previously filled with 1 mL of artificial diet to which 50 μg/cm^2 of the test molecule (dissolved in 50 μL of 90:10 acetone-water mixture) had been applied (to each of eight wells) and then allowed to dry. Trays were covered with a clear self-adhesive cover, vented to allow gas exchange, and held at 25° C., 14:10 light-dark for five to seven days. Percent mortality was recorded for the larvae in each well; activity in the eight wells was then averaged. The results are indicated in the table entitled “Table ABC: Biological Results” (See Table Section).

[3] = system: Yellow Fever Mosquito (Aedes aegypti, AEDSAE); conditions: about 1 day-old larvae, 96-well plate from 4000 ppm DMSO master, 3 days at room temperature
Protocol: Certain molecules disclosed in this document were tested against YFM using procedures described in the following paragraph. In the reporting of the results, the “GPA & YFM Rating Table” was used (See Table Section).
Master plates containing 400 μg of a molecule dissolved in 100 μL of dimethyl sulfoxide (DMSO) (equivalent to a 4000 ppm solution) are used. A master plate of assembled molecules contains 15 μL per well. To this plate, 135 μL of a 90:10 water/acetone mixture is added to each well. A robot is programmed to dispense 15 μL aspirations from the master plate into an empty 96-well shallow plate (“daughter” plate). There are 6 reps (“daughter” plates) created per master. The created “daughter” plates are then immediately infested with YFM larvae.
The day before plates are to be treated, mosquito eggs are placed in Millipore water containing liver powder to begin hatching (4 g. into 400 mL). After the “daughter” plates are created using the robot, they are infested with 220 μL of the liver powder/larval mosquito mixture (about 1 day-old larvae). After plates are infested with mosquito larvae, a non-evaporative lid is used to cover the plate to reduce drying. Plates are held at room temperature for 3 days prior to grading. After 3 days, each well is observed and scored based on mortality. The results are indicated in the table entitled “Table ABC: Biological Results” (See Table Section).

Row | SMILES | mortality at 50 µg/cm2 [1] [%] | mortality at 50 µg/cm2 [2] [%] | YFM % Control (or Mortality) rating [3]
1 | Nc1ccc([C@H]2[C@H](C(=O)Nc3ccc(Cl)c(C(=O)NC4CC(F)(F)C4)c3)C2(Cl)Cl)cc1 (relative stereo) [Molecule F70, trans-5-(3-(4-aminophenyl)-2,2-dichlorocyclopropane-1-carboxamido)-2-chloro-N-(3,3-difluorocyclobutyl)benzamide] | 0 to 50 | 50 to 100 | D (No activity noticed in this bioassay)
2 | Cc1c(Cl)cc([C@H]2[C@H](C(=O)Nc3ccc(Cl)c(C(=O)NC4CC(F)(F)C4)c3)C2(Cl)Cl)cc1Cl (relative stereo) [Molecule F48, trans-2-Chloro-5-(2,2-dichloro-3-(3,5-dichloro-4-methylphenyl)cyclopropanecarboxamido)-N-(3,3-difluorocyclobutyl)benzamide] | 50 to 100 | 50 to 100 | A (80-100)
3 | CC1(NC(=O)c2cc(NC(=O)[C@H]3[C@H](c4cc(Cl)cc(Cl)c4)C3(Cl)Cl)ccc2Cl)CC1 (relative stereo) [PF32, trans-2-Chloro-5-(2,2-dichloro-3-(3,5-dichloro-phenyl)cyclopropanecarboxamido)-N-(1-methylcyclopropyl)benzamide] | 50 to 100 | 50 to 100 | A (80-100)
4 | O=C(NC1CC(F)(F)C1)c1cc(NC(=O)[C@@H]2[C@@H](c3cc(Cl)cc(Cl)c3)C2(Cl)Cl)ccc1Cl [Molecule F74, 2-Chloro-5-((1S,3S)-2,2-dichloro-3-(3,5-dichlorophenyl)cyclopropane-1-carboxamido)-N-(3,3-difluorocyclobutyl)benzamide] | 50 to 100 | 50 to 100 | A (80-100)
5 | O=C1CC(NC(=O)c2cc(NC(=O)[C@H]3[C@H](c4cc(Cl)cc(Cl)c4)C3(Cl)Cl)ccc2Cl)C1 (relative stereo) [Molecule F68, trans-2-chloro-5-(2,2-dichloro-3-(3,5-dichloro-phenyl)cyclopropane-1-carboxamido)-N-(3-oxocyclobutyl)benzamide] | 50 to 100 | 50 to 100 | A (80-100)
6 | O=C(N[C@@H]1CON(CC(F)(F)F)C1=O)c1cc(NC(=O)C2C(c3cc(Cl)cc(Cl)c3)C2(Cl)Cl)ccc1Cl (stereo partly drawn) [PF28, trans-2-Chloro-5-(2,2-dichloro-3-(3,5-dichlorophenyl)cyclopropane-1-carbox-amido)-N—((R)-3-oxo-2-(2,2,2-trifluoroethyl)isoxazolidin-4-yl)benzamide] | 50 to 100 | 50 to 100 | A (80-100)
7 | N#CC1(NC(=O)c2cc(NC(=O)[C@@H]3[C@@H](c4cc(Cl)cc(Cl)c4)C3(Cl)Cl)ccc2Cl)CC1 [Molecule F76, 2-Chloro-N-(1-cyanocyclopropyl)-5-((1S,3S)-2,2-dichloro-3-(3,5-dichloro-phenyl)cyclopropanecarboxamido)benzamide] | 50 to 100 | 50 to 100 | A (80-100)
8 | N#CC1(NC(=O)c2cc(NC(=O)[C@@H]3[C@@H](c4cc(Cl)c(Cl)c(Cl)c4)C3(Cl)Cl)ccc2Cl)CC1 [Molecule F64, 2-Chloro-N-(1-cyanocyclopropyl)-5-((1S,3S)-2,2-dichloro-3-(3,4,5-trichloro-phenyl)cyclopropane-1-carboxamido)benzamide] | 50 to 100 | 50 to 100 | A (80-100)
9 | O=C(NC1CC(F)(F)C1)c1cc(NC(=O)[C@H]2[C@H](c3ccc(C(F)(F)F)cc3)C2(Cl)Cl)ccc1Cl (relative stereo) [Molecule F22, trans-2-Chloro-5-(2,2-dichloro-3-(4-(trifluoromethyl)phenyl)cyclopropanecarboxamido)-N-(3,3-difluorocyclobutyl)benzamide] | 50 to 100 | 50 to 100 | A (80-100)
10 | N#CC1(NC(=O)c2cc(NC(=O)[C@H]3[C@H](c4ccc(Br)c(Cl)c4)C3(Cl)Cl)ccc2Cl)CC1 (relative stereo) [Molecule F66, trans-5-(3-(4-bromo-3-chlorophenyl)-2,2-dichlorocyclopropane-1-carboxamido)-2-chloro-N-(1-cyanocyclopropyl)benzamide] | 50 to 100 | 50 to 100 | A (80-100)
11 | O=C(N[C@@H]1CON(CC(F)(F)F)C1=O)c1cc(NC(=O)C2C(c3cc(Cl)c(Cl)c(Cl)c3)C2(Cl)Cl)ccc1Cl (stereo in doubt) [Molecule F80, trans-2-Chloro-5-(2,2-dichloro-3-(3,4,5-trichlorophenyl)cyclopropane-1-carboxamido)-N—((R)-3-oxo-2-(2,2,2-trifluoroethyl)isoxazolidin-4-yl)benzamide] | 50 to 100 | 50 to 100 | A (80-100)
12 | O=C(N[C@@H]1CON(CC(F)(F)F)C1=O)c1cc(NC(=O)C2C(c3ccc(Cl)c(Cl)c3)C2(Cl)Cl)ccc1Cl (stereo in doubt) [Molecule F79, trans-2-Chloro-5-(2,2-dichloro-3-(3,4-dichlorophenyl)cyclopropane-1-carboxamido)-N—((R)-3-oxo-2-(2,2,2-trifluoroethyl)isoxazolidin-4-yl)benzamide] | 50 to 100 | 50 to 100 | A (80-100)
13 | O=C(NC1CCS(=O)(=O)C1)c1cc(NC(=O)[C@H]2[C@H](c3cc(Cl)c(Cl)c(Cl)c3)C2(Cl)Cl)ccc1Cl (relative stereo) [PF19, trans-2-Chloro-5-(2,2-dichloro-3-(3,4,5-trichlorophenyl)cyclopropane-1-carboxamido)-N-(1,1-dioxidotetrahydrothiophen-3-yl)benzamide] | 50 to 100 | 50 to 100 | B (More than 0-Less than 80)
14 | N#CC1(NC(=O)c2cc(NC(=O)[C@H]3[C@H](c4cc(Cl)cc(Cl)c4)C3(Cl)Cl)ccc2Cl)CC1 [Molecule F75, 2-Chloro-N-(1-cyanocyclopropyl)-5-((1R,3R)-2,2-dichloro-3-(3,5-dichloro-phenyl)cyclopropane-1-carboxamido)benzamide] |  |  | A (80-100)
15 | O=C(NC1CC(F)(F)C1)c1cc(NC(=O)[C@H]2[C@H](c3cc(Cl)cc(C(F)(F)F)c3)C2(Cl)Cl)ccc1Cl (relative stereo) [Molecule F26, trans-2-Chloro-5-(2,2-dichloro-3-(3-chloro-5-(trifluoromethyl)phenyl)cyclopropanecarboxamido)-N-(3,3-difluorocyclobutyl)benzamide] | 50 to 100 | 50 to 100 | 
16 | O=C(NC1CC(F)(F)C1)c1cc(NC(=O)[C@H]2[C@H](c3ccccc3)C2(Cl)Cl)ccc1Cl (relative stereo) [Molecule F37, trans-2-Chloro-5-(2,2-dichloro-3-phenylcyclopropanecarboxamido)-N-(3,3-difluorocyclobutyl)benzamide] | 50 to 100 | 50 to 100 | 
